Data on 28 molecules can be found in PubChem BioAssay (NCI).

Structures are written as SMILES. Values joined by “and” are separate entries in the source; they are usually repeats but may differ in a detail not shown here. Identical values can stand only once.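 All cell lines were grown in 96-well plates and treated with compound for 48 hours. At the GI50, growth is halved. At the TGI there is no net growth.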

In the first experiment the test system is LXFL 529 NSCLC. Put plainly: DTP human tumour cell line panel, 48 h.
For `COC(=O)[C@H]1C=C[C@@H](C)n2c(=O)c3cc4ccccc4cc3c(=O)n21`, the TGI was > 100 µM.
As for `COc1cc(C=O)c(-c2cc(OC)c(OC)cc2C=O)cc1OC`, the TGI is > 100 µM.
In the case of `N#CC(C(=O)C(=O)Nc1ccc(Cl)cc1)c1ccccc1` (configuration not stated), the TGI was > 100 µM.
For `COc1c[c]([Hg][O]C(C)=O)c(OC)c(NC(=O)CC(C)=O)[c]1[Hg][O]C(C)=O`, the GI50 was 1.42 µM and the TGI amounted to 2.85 µM.
For `COC(=O)/C=C1\CCC(C)O1` (configuration not stated), the TGI is > 100 µM.
On to `O=C(/C=C/c1ccccc1Cl)NC1C=Nc2ccc([N+](=O)[O-])cc2NC1` (configuration not stated), for which the TGI is > 100 µM.
On to `CCCO/S(=N\S(=O)(=O)c1ccccc1)c1ccccc1[N+](=O)[O-]` (configuration not stated), for which the TGI was > 100 µM.
On to `Cc1ccc(C)c(N=C2NC(=O)C(CC(=O)Nc3ccc(Cl)cc3Cl)S2)c1` (configuration not stated), for which the TGI was > 100 µM.
For `C/C(CC(=O)Nc1cccc(Cl)c1C)=N\NC(=O)c1ccncc1`, the TGI is > 100 µM.
The same measure, in the same setting: the same measure for `Cc1nc([N+](=O)[O-])cn1CC(=N)N`: > 100 µM.
Regarding `COC(=O)/C=C/c1c(CC=C(C)C)ncn1C`, the TGI is > 100 µM.
On the same count and under the same terms, the same measure for `CC(=O)O[C@H]1CCC2[C@@H]3CCC4Nc5[nH]ncc5C[C@]4(C)C3CC[C@@]21C` (some centres not stated): > 100 µM.
`Cc1cc(C)nc(NS(=O)(=O)c2ccc(NC(=O)c3cccc4c(Nc5ccc(S(N)(=O)=O)cc5)c5ccccc5nc34)cc2)n1`: the TGI is > 100 µM.

The test system of the next experiment is UACC-257 melanoma. Put plainly: DTP human tumour cell line panel, 48 h.
In the case of `CC(C)C(=O)NS(=O)(=O)c1ccccc1`, the TGI was > 100 µM.
The same measure, in the same setting: the same measure for `COC1(OC)CC2C(=O)N(Cc3ccccc3)C1C=C2S(=O)(=O)c1ccccc1` (configuration not stated): 34.5 µM.
`CC(=O)[O][Ga]([Br])[O]C(C)=O`: the GI50 was > 100 µM and the TGI was > 100 µM.
For `COc1cc2c(OC)cc1CSCc1sc(C)c(c1Br)CSC2`, the TGI was > 100 µM.
Still for that read-out and setting: the same measure for `CC(C)N(C(=O)C12C3C4C1(I)C1C2C3(I)C41C(=O)N(C(C)C)C(C)C)C(C)C` (configuration not stated): > 100 µM; for `Cc1cccc(C)c1NC(=O)C(=O)C(C(=O)c1ccccc1-c1ccccc1)C1OC(=O)c2ccccc21` (configuration not stated): > 100 µM; for `CC1COC(C)(C)P(=O)(c2ccccc2)C1` (configuration not stated): > 100 µM.
Regarding `Cc1ccc(S(=O)(=O)c2ccc(N)cc2)cc1`, the TGI is > 100 µM.
Turning to `CCOP(=O)(OCC)OC1C=CC2CCC1C2` (configuration not stated), the TGI is > 100 µM.
Take `COC(=O)[C@H]1C=C[C@@H](C)n2c(=O)c3cc4ccccc4cc3c(=O)n21`: the TGI is > 100 µM.
Consider `COc1cc(C=O)c(-c2cc(OC)c(OC)cc2C=O)cc1OC`, for which the TGI is > 100 µM.
`N#CC(C(=O)C(=O)Nc1ccc(Cl)cc1)c1ccccc1` (configuration not stated): the TGI is > 100 µM.
In the case of `COc1c[c]([Hg][O]C(C)=O)c(OC)c(NC(=O)CC(C)=O)[c]1[Hg][O]C(C)=O`, the GI50 is 2.73 µM and the TGI worked out at 7.46 µM.
Take `COC(=O)/C=C1\CCC(C)O1` (configuration not stated): the TGI was > 100 µM.
The same measure, in the same setting: the same measure for `O=C(/C=C/c1ccccc1Cl)NC1C=Nc2ccc([N+](=O)[O-])cc2NC1` (configuration not stated): > 100 µM.
As for `CC[C@H]1CN2CCc3cc(OC)c(OC)cc3[C@@H]2C[C@@H]1C[C@H]1NCCc2c1[nH]c1ccc(O)cc21`, the GI50 is 0.223 µM and 0.212 µM; the TGI was 0.666 µM and 0.69 µM and 0.643 µM.
With `CCCO/S(=N\S(=O)(=O)c1ccccc1)c1ccccc1[N+](=O)[O-]` (configuration not stated), the TGI was > 100 µM.
Turning to `Cc1ccc(C)c(N=C2NC(=O)C(CC(=O)Nc3ccc(Cl)cc3Cl)S2)c1` (configuration not stated), the TGI is > 100 µM.
In the case of `C/C(CC(=O)Nc1cccc(Cl)c1C)=N\NC(=O)c1ccncc1`, the TGI is > 100 µM.
As for `Cc1cc(NS(=O)(=O)c2ccc(Nc3c4ccccc4nc4c(C(=O)N5CCN(CCO)CC5)ccc(Cl)c34)cc2)no1`, the TGI was > 100 µM.
On to `O=C(O)CC(NC(=O)CP(=O)(O)O)C(=O)O` (configuration not stated), for which the GI50 is 3150 µM and the TGI was > 10000 µM.
As to `Cc1nc([N+](=O)[O-])cn1CC(=N)N`, the TGI was > 100 µM.
In the case of `COC(=O)/C=C/c1c(CC=C(C)C)ncn1C`, the TGI was > 100 µM.
Consider `O=S(=O)(c1ccccc1)C1CN2OC1(S(=O)(=O)c1ccccc1)CC2c1ccc(Br)cc1` (configuration not stated), for which the total growth inhibition concentration (TGI) was > 100 µM.
For the molecule `CC(=O)O[C@H]1CCC2[C@@H]3CCC4Nc5[nH]ncc5C[C@]4(C)C3CC[C@@]21C` (some centres not stated), the TGI stood at 72.4 µM.
The same measure, in the same setting: the figure for `Cc1cc(C)nc(NS(=O)(=O)c2ccc(NC(=O)c3cccc4c(Nc5ccc(S(N)(=O)=O)cc5)c5ccccc5nc34)cc2)n1` is 72.4 µM; for `Cc1cc(S(=O)(=O)O)c(NC(=O)C(=O)Cc2cc(=O)oc3cc(O)ccc23)cc1Cl` it is > 100 µM.
Consider `C=C1C(=O)O[C@H]2[C@H]1CC/C(COC(=O)/C=C\C(=O)NCc1ccc(Cn3c(=O)sn(CCCC)c3=O)cc1)=C\CC[C@@]1(C)O[C@@H]21`, for which the GI50 was 1.38 µM and the TGI was determined as 2.93 µM.

For another experiment, the system named is DLD-1 colon. As to the kind of experiment: DTP human tumour cell line panel, 48 h.
As to `CC(C)C(=O)NS(=O)(=O)c1ccccc1`, the TGI was > 100 µM.
In turn, `COC1(OC)CC2C(=O)N(Cc3ccccc3)C1C=C2S(=O)(=O)c1ccccc1` (configuration not stated) displayed a TGI of 27.6 µM.
For the molecule `CC(=O)[O][Ga]([Br])[O]C(C)=O`, the GI50 is > 100 µM and the TGI was > 100 µM.
In the case of `COc1cc2c(OC)cc1CSCc1sc(C)c(c1Br)CSC2`, the TGI is > 100 µM.
On the same count and under the same terms, the figure for `CC(C)N(C(=O)C12C3C4C1(I)C1C2C3(I)C41C(=O)N(C(C)C)C(C)C)C(C)C` (configuration not stated) is > 100 µM; for `Cc1cccc(C)c1NC(=O)C(=O)C(C(=O)c1ccccc1-c1ccccc1)C1OC(=O)c2ccccc21` (configuration not stated) it is 37.3 µM.
Same read-out and setting: the same measure for `CC1COC(C)(C)P(=O)(c2ccccc2)C1` (configuration not stated): > 100 µM.
For the molecule `Cc1ccc(S(=O)(=O)c2ccc(N)cc2)cc1`, the TGI is > 100 µM.
`CCOP(=O)(OCC)OC1C=CC2CCC1C2` (configuration not stated): the TGI was > 100 µM.
With `COC(=O)[C@H]1C=C[C@@H](C)n2c(=O)c3cc4ccccc4cc3c(=O)n21`, the TGI is > 100 µM.
On to `COc1cc(C=O)c(-c2cc(OC)c(OC)cc2C=O)cc1OC`, for which the TGI was > 100 µM.
On to `N#CC(C(=O)C(=O)Nc1ccc(Cl)cc1)c1ccccc1` (configuration not stated), for which the TGI was > 100 µM.
Take `COc1c[c]([Hg][O]C(C)=O)c(OC)c(NC(=O)CC(C)=O)[c]1[Hg][O]C(C)=O`: the GI50 was 2.25 µM and the TGI is 5.18 µM.
Turning to `COC(=O)/C=C1\CCC(C)O1` (configuration not stated), the TGI was > 100 µM.
The same measure, in the same setting: the same measure for `O=C(/C=C/c1ccccc1Cl)NC1C=Nc2ccc([N+](=O)[O-])cc2NC1` (configuration not stated): > 100 µM.
With `CC[C@H]1CN2CCc3cc(OC)c(OC)cc3[C@@H]2C[C@@H]1C[C@H]1NCCc2c1[nH]c1ccc(O)cc21`, the GI50 was 0.144 µM; the TGI was 0.246 µM and 0.57 µM and 1.58 µM.
Take `CCCO/S(=N\S(=O)(=O)c1ccccc1)c1ccccc1[N+](=O)[O-]` (configuration not stated): the TGI is > 100 µM.

The TGI is the concentration at which net growth stops. Lower therefore signals more potent growth arrest. Broadly, the GI50 is the concentration at which growth is held to half of that of the control.
